Assay results published in patent US10561635B2, “Cromolyn compositions for treatment of pulmonary fibrosis” (Respivant Sciences, GmbH, priority 2016, dated 2020).
Read-outs that look alike come from different tables or passages of the source.

Experiments:
[1] = PK-01: pharmacokinetics and relative bioavailability of single doses in healthy subjects; type: in vivo, human; settings: for AUC(0-inf): human, plasma, inhaled, 40 mg, 40 mg single dose
Procedure: This was a Phase 1, randomized, open-label, single-centre, dose-ranging, cross-over study conducted in a total of 12 healthy adult subjects of 18-45 years of age.
All study subjects received each study treatment in the morning (at 8:00 am, +/−30 minutes) as a single dose treatment. Prior to each dosing day, subjects were admitted to the clinic in the morning for baseline (pre-dose) assessments. Subjects were required to remain in the clinic for 12 h after study drug administration on each dosing day. Treatment Visits were separated by a washout period of 2 to 5 days.
The duration of the study was one day.
Urine DSCG levels were measured for total DSCG excretion in the urine, and the bioavailability of the DSCG was calculated from the measured levels.
Pharmacokinetic parameters and plasma concentrations are listed and summarized. The summary statistics are presented as the geometric mean, arithmetic mean, arithmetic standard deviation (SD), min, median, max and n. The geometric statistics are not presented for Tmax. Analysis of variance (ANOVA) including terms for subject and treatment are used to calculate point estimates, and confidence intervals (CI) for treatment differences with respect to PK parameters (90% CI) are calculated.

[2] = in vivo, cited from earlier work
[3] = Pharmacokinetics of cromolyn sodium in plasma and lung of male BALB/c mice after a single intraperitoneal injection; type: in vivo; settings: single IP injection, 10 mg/kg and 100 mg/kg
Procedure: BALB/c male mice, weighing 22±2 g, were provided by BioLasco Taiwan. All animals were maintained in a well-controlled temperature (20-24° C.) and humidity (30%-70%) environment with 12 hours light/dark cycles. The mice were given free access to a standard lab diet [MFG (Oriental Yeast Co., Ltd., Japan)] and autoclaved tap water.
The solution was administered to the mice by IP injection at concentrations of 10 mg/kg and 100 mg/kg. The dosing volume for both dose strengths was 5 mL/kg.
The mice were sedated under general inhalant anesthesia (3% isoflurane) for blood collection by cardiac puncture. […]
The plasma samples were processed using acetonitrile (ACN) precipitation and analyzed by LC-MS/MS. […] The processed plasma samples were stored at −70° C. until receiving LC-MS/MS analysis, at which time peak areas were recorded, and the concentrations of the test substance in the unknown plasma samples were determined using the respective calibration curve. The reportable linear range of the assay was determined, along with the lower limit of quantitation (LLQ).
Each lung was homogenized in 1.5 mL cold phosphate-buffered saline (PBS) at pH 7.4 for 10 seconds on ice. The lung homogenate was centrifuged at 5,400×g for 15 minutes at 4° C., and the supernatant was subsequently processed using ACN precipitation and analyzed by LC-MS/MS. […]

O=C([O-])c1cc(=O)c2c(OCC(O)COc3cccc4oc(C(=O)O)cc(=O)c34)cccc2o1.[Na+] [cromolyn sodium, disodium 5,5′-(2-hydroxypropane-1,3-diyl)bis(oxy)bis(4-oxo-4H-chromene-2-carboxylate)]
AUC(0-inf) ([1]; eFlow 30 L): 338 ng·h/mL | AUC(0-inf) ([1]; eFlow 40 L): 212 ng·h/mL | lung deposition with the 30 L device compared with the 40 L device, indicated by AUC ([1]; same dose (40 mg)): surprisingly higher | oral bioavailability ([2]; listed as cromolyn): about 1% | oral bioavailability [2]: ~1% | exposure of cromolyn sodium in the plasma and lungs [3]: Significant exposure
